The values that follow come from patent publication US20220323406A1, “METHODS AND COMPOSITIONS FOR DIFFERENTIATING STEM CELLS” (Massachusetts Institute of Technology, priority 2019, published 2022).

In assay [1] the test system is ENR+CD organoids (ISC to Paneth cell differentiation). Kind of assay: Primary screen: basal (non-stimulated) lysozyme secretion LYZ.NS, 2.5-D 384-well ENR+CD organoid differentiation. It is filed as cell-based, mouse. From the text: (§1) High-throughput screening.
The test system is the same in assay [2]. Kind of assay: Primary screen: CCh-stimulated lysozyme secretion LYZ.S, 2.5-D 384-well ENR+CD organoid differentiation. It is filed as cell-based, mouse. The settings on record: primary screen.
Description: as §1

For assay [3], the system named is ENR+CD organoids. Kind of assay: Primary screen: ATP (CellTiter-Glo 3D, CTG) cell number/viability, 2.5-D 384-well ENR+CD organoids.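 On all read-outs here: compounds given at plating and again on day 3 over a 6-day differentiation from ENR+CV stem-cell-enriched precursors, ATP measured on day 6, plate median as control.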 The settings on record: primary screen; for Z.CTG: standard z score. For orientation: Cellular ATP, detected with luciferase, serves as a proxy for viable cell number.
Setting [4] is: primary screen, dose 0.08 uM, FC relative to plate median.
[5] abbreviates: primary screen, dose 0.08 uM, standard z score.
Setting [6] is: primary screen, dose 0.40 uM, FC relative to plate median.
Where [7] appears, read: primary screen, dose 0.40 uM, standard z score.
The mark [8] stands for this setting: primary screen, dose 2.00 uM, FC relative to plate median.
[9] abbreviates: primary screen, dose 2.00 uM, standard z score.
Where [10] appears, read: primary screen, dose 10.00 uM, FC relative to plate median.
The mark [11] stands for this setting: primary screen, dose 10.00 uM, standard z score.
Where [12] appears, read: dose 0.08 uM, FC relative to plate median.
The mark [13] stands for this setting: dose 0.40 uM, FC relative to plate median.
Setting [14] is: dose 2.00 uM, FC relative to plate median.
Setting [15] is: dose 10.00 uM, FC relative to plate median.
Setting [16] is: primary screen, standard z score, dose 0.08 uM.
The mark [17] stands for this setting: primary screen, standard z score, dose 0.40 uM.
[18] abbreviates: primary screen, standard z score, dose 2.00 uM.
Setting [19] is: primary screen, standard z score, dose 10.00 uM.
Setting [20] is: dose 0.08 uM, FC vs plate median.
Setting [21] is: dose 0.40 uM, FC vs plate median.
[22] abbreviates: dose 2.00 uM, FC vs plate median.
Where [23] appears, read: dose 10.00 uM, FC vs plate median.

For the molecule `O=C(/C=C/c1ccccc1)NC(NC(=S)Nc1ccc(Cl)cc1)C(Cl)(Cl)Cl` (centres unmarked) [Sal003], the Dose.FC.LYZ.NS in assay [1] (setting [4]) is on record as 0.116 log2 fold change; in assay [1] (setting [6]), 0.183 log2 fold change; in assay [1] (setting [8]) it was 0.077 log2 fold change; in assay [1] (setting [10]), −0.246 log2 fold change. For the same molecule, the Z.LYZ.NS is 1.013 in assay [1] (setting [5]), 1.595 in assay [1] (setting [7]), 0.670 in assay [1] (setting [9]) and −2.142 in assay [1] (setting [11]). Further, the Dose.FC.LYZ.S in assay [2] (setting [12]) is 0.092 log2 fold change; in assay [2] (setting [13]), 0.067 log2 fold change; in assay [2] (setting [14]), 0.040 log2 fold change; in assay [2] (setting [15]), −0.408 log2 fold change. Also, the Dose.FC.CTG in assay [3] (setting [12]) is 0.191 log2 fold change; in assay [3] (setting [13]) it was 0.155 log2 fold change; in assay [3] (setting [14]) it was 0.196 log2 fold change; in assay [3] (setting [15]) it was −0.829 log2 fold change. In addition, the Z.CTG in assay [3] (dose 0.08 uM) is reported as 0.456; in assay [3] (dose 0.40 uM), 0.370; in assay [3] (dose 2.00 uM), 0.468; in assay [3] (dose 10.00 uM), −1.981.
As for `CNC(=O)c1cc(Oc2ccc(NC(=O)Nc3ccc(Cl)c(C(F)(F)F)c3)cc2)ccn1` [Sorafenib], the Dose.FC.LYZ.NS is 0.052 log2 fold change in assay [1] (setting [4]), 0.060 log2 fold change in assay [1] (setting [6]), 0.095 log2 fold change in assay [1] (setting [8]) and −0.021 log2 fold change in assay [1] (setting [10]). The Z.LYZ.NS in assay [1] (setting [5]) is on record as 0.457; in assay [1] (setting [7]), 0.520; in assay [1] (setting [9]), 0.830; in assay [1] (setting [11]), −0.180. Moreover, the Dose.FC.LYZ.S in assay [2] (setting [12]) was 0.124 log2 fold change; in assay [2] (setting [13]), 0.164 log2 fold change; in assay [2] (setting [14]), 0.014 log2 fold change; in assay [2] (setting [15]) it was −0.062 log2 fold change. In addition, the figures for the Dose.FC.CTG in assay [3] (setting [12]), in assay [3] (setting [13]) and in assay [3] (setting [14]) were 0.032 log2 fold change, 0.165 log2 fold change and −0.206 log2 fold change, respectively.
On to `COc1ccc([C@]2(C#N)CC[C@@H](C(=O)O)CC2)cc1OC1CCCC1` [Cilomilast], for which the Dose.FC.LYZ.NS in assay [1] (primary screen, dose 0.08 uM) is given as 0.114 log2 fold change; in assay [1] (primary screen, dose 0.40 uM), −0.037 log2 fold change; in assay [1] (primary screen, dose 2.00 uM), −0.010 log2 fold change; in assay [1] (primary screen, dose 10.00 uM), −0.043 log2 fold change. Moreover, the Z.LYZ.NS is reported as 0.995 in assay [1] (setting [16]), −0.321 in assay [1] (setting [17]), −0.083 in assay [1] (setting [18]) and −0.376 in assay [1] (setting [19]). Moreover, the Dose.FC.LYZ.S is 0.115 log2 fold change in assay [2] (dose 0.08 uM), −0.109 log2 fold change in assay [2] (dose 0.40 uM), −0.083 log2 fold change in assay [2] (dose 2.00 uM) and −0.045 log2 fold change in assay [2] (dose 10.00 uM). Also, the Dose.FC.CTG in assay [3] (dose 0.08 uM) was −0.334 log2 fold change; in assay [3] (dose 0.40 uM) it was −0.338 log2 fold change; in assay [3] (dose 2.00 uM), −0.235 log2 fold change; in assay [3] (dose 10.00 uM), −0.192 log2 fold change.
`CC(C)n1c(/C=C/C(O)CC(O)CC(=O)O)c(-c2ccc(F)cc2)c2ccccc21` (centres unmarked) [Fluvastatin Sodium]: the Dose.FC.LYZ.NS in assay [1] (primary screen, dose 0.08 uM) was 0.112 log2 fold change; in assay [1] (primary screen, dose 0.40 uM), −0.146 log2 fold change; in assay [1] (primary screen, dose 2.00 uM) it was −0.203 log2 fold change; in assay [1] (primary screen, dose 10.00 uM) it was −0.159 log2 fold change. In addition, the Z.LYZ.NS in assay [1] (setting [16]) is 0.979; in assay [1] (setting [17]) it was −1.275; in assay [1] (setting [18]), −1.764; in assay [1] (setting [19]), −1.388. The Dose.FC.LYZ.S in assay [2] (dose 0.08 uM) is reported as 0.026 log2 fold change; in assay [2] (dose 0.40 uM) it was −0.177 log2 fold change; in assay [2] (dose 2.00 uM) it was −0.293 log2 fold change; in assay [2] (dose 10.00 uM) it was −0.267 log2 fold change. The Dose.FC.CTG is on record as −0.161 log2 fold change in assay [3] (dose 0.08 uM), −0.482 log2 fold change in assay [3] (dose 0.40 uM), −1.111 log2 fold change in assay [3] (dose 2.00 uM) and −1.761 log2 fold change in assay [3] (dose 10.00 uM).
On to `CCC(=O)NCC[C@@H]1CCc2ccc3c(c21)CCO3` [Ramelteon], for which the Dose.FC.LYZ.NS in assay [1] (setting [4]) is reported as 0.062 log2 fold change; in assay [1] (setting [6]), 0.082 log2 fold change; in assay [1] (setting [8]) it was −0.013 log2 fold change; in assay [1] (setting [10]), 0.007 log2 fold change. For the same molecule, the Z.LYZ.NS in assay [1] (setting [5]) is recorded as 0.537; in assay [1] (setting [7]), 0.712; in assay [1] (setting [9]) it was −0.109; in assay [1] (setting [11]), 0.062. For the same molecule, the Dose.FC.LYZ.S in assay [2] (setting [12]) is 0.030 log2 fold change; in assay [2] (setting [13]), 0.103 log2 fold change; in assay [2] (setting [14]) it was −0.009 log2 fold change; in assay [2] (setting [15]), 0.001 log2 fold change. Further, the Dose.FC.CTG in assay [3] (setting [12]) was −0.028 log2 fold change; in assay [3] (setting [13]), 0.155 log2 fold change; in assay [3] (setting [14]), −0.315 log2 fold change; in assay [3] (setting [15]) it was 0.150 log2 fold change.
For the molecule `O=C(c1ccc(F)cc1)N1CCC[C@H](c2nc(-c3ccc(F)cc3)no2)C1` [ADX-47273], the Dose.FC.LYZ.NS in assay [1] (primary screen, dose 0.08 uM) is recorded as 0.269 log2 fold change; in assay [1] (primary screen, dose 0.40 uM), 0.053 log2 fold change; in assay [1] (primary screen, dose 2.00 uM), −0.033 log2 fold change; in assay [1] (primary screen, dose 10.00 uM), −0.036 log2 fold change. Moreover, the “Z.LYZ.NS (standard z score)” value in assay [1] (primary screen, dose 0.08 uM) is 2.346; in assay [1] (primary screen, dose 0.40 uM), 0.457; in assay [1] (primary screen, dose 2.00 uM), −0.286; in assay [1] (primary screen, dose 10.00 uM), −0.311. The Dose.FC.LYZ.S in assay [2] (dose 0.08 uM) is listed as 0.147 log2 fold change; in assay [2] (dose 0.40 uM), 0.147 log2 fold change; in assay [2] (dose 2.00 uM) it was −0.039 log2 fold change; in assay [2] (dose 10.00 uM), −0.070 log2 fold change. Further, the Dose.FC.CTG is reported as 0.115 log2 fold change in assay [3] (dose 0.08 uM), −0.034 log2 fold change in assay [3] (dose 0.40 uM), −0.210 log2 fold change in assay [3] (dose 2.00 uM) and −0.039 log2 fold change in assay [3] (dose 10.00 uM). The “Z.CTG (standard z score)” value in assay [3] (dose 0.08 uM) is recorded as 0.274; in assay [3] (dose 0.40 uM) it was −0.082; in assay [3] (dose 2.00 uM), −0.501; in assay [3] (dose 10.00 uM), −0.094.
For `CCC(CC)(NC(=O)C(C)C)C(=O)N[C@@H](CCCN=C(N)N)C(=O)NC1(C(=O)NC(c2ccc(F)cc2)c2ccc(F)cc2)CCCC1` [MM-102], the Z.LYZ.NS in assay [1] (setting [5]) is −0.220; in assay [1] (setting [7]) it was −0.090; in assay [1] (setting [9]) it was 0.230; in assay [1] (setting [11]), −1.424. Also, the Dose.FC.LYZ.NS is given as −0.025 log2 fold change in assay [1] (primary screen; dose 0.08 uM; FC vs plate median), −0.010 log2 fold change in assay [1] (primary screen; dose 0.40 uM; FC vs plate median), 0.026 log2 fold change in assay [1] (primary screen; dose 2.00 uM; FC vs plate median) and −0.164 log2 fold change in assay [1] (primary screen; dose 10.00 uM; FC vs plate median). Besides, the Dose.FC.LYZ.S in assay [2] (setting [20]) is given as −0.027 log2 fold change; in assay [2] (setting [21]), −0.001 log2 fold change; in assay [2] (setting [22]) it was −0.035 log2 fold change; in assay [2] (setting [23]), −0.194 log2 fold change. In addition, the Z.CTG in assay [3] (dose 0.08 uM) is on record as −0.489; in assay [3] (dose 0.40 uM), −0.315; in assay [3] (dose 2.00 uM), −0.557; in assay [3] (dose 10.00 uM) it was −0.964. Besides, the Dose.FC.CTG in assay [3] (setting [20]) is given as −0.205 log2 fold change; in assay [3] (setting [21]), −0.132 log2 fold change; in assay [3] (setting [22]) it was −0.233 log2 fold change; in assay [3] (setting [23]) it was −0.403 log2 fold change.
As to `COc1ccc(C(=O)Nc2sc3c(c2C(N)=O)CCCC3)cc1OC` [TCS 359], the Dose.FC.LYZ.NS is given as 0.085 log2 fold change in assay [1] (setting [4]), 0.058 log2 fold change in assay [1] (setting [6]), 0.018 log2 fold change in assay [1] (setting [8]) and −0.008 log2 fold change in assay [1] (setting [10]). In addition, the Z.LYZ.NS in assay [1] (setting [5]) was 0.742; in assay [1] (setting [7]), 0.502; in assay [1] (setting [9]), 0.156; in assay [1] (setting [11]) it was −0.072. Further, the Dose.FC.LYZ.S in assay [2] (setting [12]) was 0.098 log2 fold change; in assay [2] (setting [13]) it was 0.069 log2 fold change; in assay [2] (setting [14]) it was −0.006 log2 fold change; in assay [2] (setting [15]), 0.026 log2 fold change. Further, the Dose.FC.CTG in assay [3] (setting [12]) is listed as 0.150 log2 fold change; in assay [3] (setting [13]), 0.250 log2 fold change; in assay [3] (setting [14]), 0.050 log2 fold change; in assay [3] (setting [15]), −0.089 log2 fold change. In addition, the Z.CTG is 0.358 in assay [3] (dose 0.08 uM), 0.598 in assay [3] (dose 0.40 uM), 0.119 in assay [3] (dose 2.00 uM) and −0.212 in assay [3] (dose 10.00 uM).
